# Counter-ions that a name gives are not always drawn.
# Tests used:
# [1] = subcutaneous administration; had been reported; cited from earlier work
# C6 cells [2] = test: Rate of dead cells in PDT-treated or anti-cancer agent-treated C6 cells (Annexin V/PI), Example 2; assay type: cell-based, rat; settings: C6 cells cultured 48 hours with MTX 20 μg/mL, DOX 75 μg/mL or EPI 62.5 μg/mL
# Description: C6 cells were cultured in 2.5% FBS/F-12K medium supplemented with 5-ALA to a final concentration of 1 mM in a 5% CO2 incubator at 37° C. for 24 hours. After the culture, the cells were removed with 0.25% trypsin-EDTA solution, and the collected cells were adjusted to 2×10^7 cells/mL with PBS. The cell suspension thus prepared was injected into a Tygon tube (inner diameter: 0.79 mm), wrapped around a light irradiator (Otsuka Electronics Co., Ltd.), and irradiated with light having a wavelength of 630 nm and an irradiation energy density of 7.5 J/cm^2 (illuminance of 124.5 mW/cm^2 for 1 minute). The treated cells were pooled and the irradiation was repeated until the required dose was obtained. The irradiated cells were divided into three equal parts, and one was administered to F344 rats (8 week-old at the start of study, male, Charles River Laboratories Japan Inc.) at 0.5 mL (1×10^7 cells) per animal from the tail vein under isoflurane anesthesia (PDT iv group, 3 animals). Another one was centrifuged to remove its culture supernatant and adjusted to 2×10^7 cells/mL with PBS, and the cell suspension thus prepared was administered at 0.5 mL (1×10^7 cells) per animal from the tail vein in the same manner as the PDT iv group (PDT-cell iv group, 3 animals). The cells of the remaining one of the three equal parts were suspended in 2.5% FBS/F-12K medium and cultured in a 5% CO2 incubator at 37° C. for 24 hours, and then collected and adjusted to 2×10^7 cells/mL with PBS, and the cell suspension thus prepared was administered at 0.5 mL (1×10^7 cells) per animal from the tail vein in the same manner as other groups (PDT/24 h-cell iv group, 3 animals). Intravenous administration of these PDT-treated cells was performed a total of 3 times (Day−15, −8, −1). […]
# The PDT-treated or anti-cancer agent-treated C6 cells were stained with FITC-labeled Annexin V and PI by using the FITC Annexin V Apoptosis Detection Kit I. After that, the rate of dead cells was analyzed with a flow cytometer.
# C6 cells [3] = test: Tumor volume after subcutaneous transplantation of C6 cells in rats given PDT-treated or anti-cancer agent-treated cells intravenously, Example 2; assay type: in vivo, rat; settings: intravenous administration of treated C6 cells to rats
# Description: C6 cells were cultured in 2.5% FBS/F-12K medium supplemented with 5-ALA to a final concentration of 1 mM in a 5% CO2 incubator at 37° C. for 24 hours. After the culture, the cells were removed with 0.25% trypsin-EDTA solution, and the collected cells were adjusted to 2×10^7 cells/mL with PBS. The cell suspension thus prepared was injected into a Tygon tube (inner diameter: 0.79 mm), wrapped around a light irradiator (Otsuka Electronics Co., Ltd.), and irradiated with light having a wavelength of 630 nm and an irradiation energy density of 7.5 J/cm^2 (illuminance of 124.5 mW/cm^2 for 1 minute). The treated cells were pooled and the irradiation was repeated until the required dose was obtained. The irradiated cells were divided into three equal parts, and one was administered to F344 rats (8 week-old at the start of study, male, Charles River Laboratories Japan Inc.) at 0.5 mL (1×10^7 cells) per animal from the tail vein under isoflurane anesthesia (PDT iv group, 3 animals). […]
# On the 4th, 6th, 8th and 10th days after preparation of the cancer-bearing rats (Day 4, 6, 8, 10), the major axis and the minor axis of the tumor were measured by using a caliper, and the tumor volume was calculated according to the following formula. […]
smiles,measurement,setting,value
"COc1cccc2c1C(=O)c1c(O)c3c(c(O)c1C2=O)C[C@@](O)(C(=O)CO)C[C@@H]3O[C@H]1C[C@H](N)[C@H](O)[C@H](C)O1 [DOX, doxorubicin hydrochloride]",immunostimulatory effects,[1],immunostimulatory effects
same,living cells (Annexin V−/PI−),C6 cells [2],5%
same,antitumor immunity,C6 cells [3],not induced
"COc1cccc2c1C(=O)c1c(O)c3c(c(O)c1C2=O)C[C@@](O)(C(=O)CO)C[C@@H]3O[C@H]1C[C@H](N)[C@@H](O)[C@H](C)O1 [EPI, epirubicin hydrochloride]",living cells (Annexin V−/PI−),C6 cells [2],5%
"O=C1c2c(O)ccc(O)c2C(=O)c2c(NCCNCCO)ccc(NCCNCCO)c21 [MTX, mitoxantrone dihydrochloride]",living cells (Annexin V−/PI−),C6 cells [2],1%

# — patent publication US20240108725A1, “METHOD FOR TREATING CANCER AND SYSTEM FOR SAME” (OTSUKA MEDICAL DEVICES CO., LTD, priority 2020, published 2024)
